In patent publication US10443103B2, “Chemotherapy regimen selection” (Innomedicine, LLC, priority 2015, dated 2019):

System: breast cancer
Experiment: Observed pathologic complete response (pCR) rate after neoadjuvant chemotherapy, GEO data sets
Assay type: in vivo, human
Conditions: Total of 7 GEO data sets, whole study population
Protocol: Herein, data was reanalyzed from several previous studies in which breast cancer patients were treated with neoadjuvant chemotherapy. Chemotherapies can be given at different stages of breast cancer: before surgery (also called neoadjuvant chemotherapy), after surgery and after metastasis. Neoadjuvant chemotherapy is often used to shrink tumors to make them more operable. There are two main categories of cytotoxic chemotherapy drugs for breast cancer: anthracyclines and taxanes. Many different combinations of the two types of drugs have been used for treating breast cancer, despite the fact that no effective guidelines are available for the selection of a specific regimen for a patient (Dotan, et al., 2010). Herein, data was collected from 1111 breast cancer patients from GEO database (Gene Expression Omnibus (Edgar, et al., 2002, Barrett, et al., 2013)), where clinical information including responses to chemotherapy and gene expression data are available. […] Among the 1111 patients, 21.2% of them have pCR and the rest have RD as their responses. […]
1111 breast cancer tumor samples were collected from 7 data series in GEO database (Gene Expression Omnibus (Takada, et al., 2012, Albain, et al., 2010)) (Table 2). […] R (Liu, et al., 2012) package Affyio (Edgar, et al., 2002) was used to read and normalize the Affymetrix® data. […]

| Structure (SMILES) | percentage of patients who have pCR |
| --- | --- |
| CC(=O)O[C@@]12CO[C@@H]1C[C@H](O)[C@@]1(C)C(=O)[C@H](O)C3=C(C)[C@@H](OC(=O)[C@H](O)[C@@H](NC(=O)OC(C)(C)C)c4ccccc4)C[C@@](O)([C@@H](OC(=O)c4ccccc4)[C@H]21)C3(C)C [docetaxel] | 33.1% |
| CC(=O)O[C@H]1C(=O)[C@@]2(C)[C@H]([C@H](OC(=O)c3ccccc3)[C@]3(O)C[C@H](OC(=O)[C@H](O)[C@@H](NC(=O)c4ccccc4)c4ccccc4)C(C)=C1C3(C)C)[C@]1(OC(C)=O)CO[C@@H]1C[C@@H]2O [paclitaxel] | 19.7% |
